Measured values from ChEMBL document CHEMBL1157399, “Antioxidant 2-phenylbenzofurans and a coumestan from Lespedeza virgata” (J Nat Prod, 2008).

Experiments:
Kidney = experiment: Inhibition of lipid peroxidation in renal failured rat kidney homogenate assessed as inhibition of malondialdehyde level by TBARS assay; type: functional, tissue-based
Plasma = experiment: Inhibition of lipid peroxidation in renal failured rat plasma assessed as inhibition of malondialdehyde level by TBARS assay; type: functional, cell-free
[1] = Antioxidant activity against 2,2'-azobis (2-amidinopropane) dihydrochloride-induced fluorescence decay at 1.5 uM assessed as trolox equivalents by ORAC-fluorescence assay; type: functional
[2] = Antioxidant activity assessed as oxygen radical scavenging activity by ORAC-fluorescence assay; type: functional

| IC50 (Kidney) | IC50 (Plasma) | Compound | Activity [1] | Activity [2] |
| --- | --- | --- | --- | --- |
| 3050 µM | 5540 µM | O=C1O[C@H]([C@@H](O)CO)C(O)=C1O [ASCORBIC ACID] | 165 | Dose-dependent effect |
| 450 µM | 190 µM | COc1c(CCC(C)(C)O)c(O)cc2oc(=O)c3c4cc(O)c(O)cc4oc3c12 [LESPEDEZACOUMESTAN] | 450 | Dose-dependent effect |
| 640 µM | 750 µM | COc1cc(OC)c(-c2oc3cc(O)c(O)cc3c2C=O)c(OC)c1 [LESPEDEZAVIRGATAL] | 189 | Dose-dependent effect |
| 160 µM | 180 µM | COc1ccc(O)c(-c2cc3ccc(O)c(OC)c3o2)c1OC [LESPEDEZAVIRGATOL] | 763 | Dose-dependent effect |
